Measurements published in publication PMC7660916, “The Salmonella enterica serovar Typhimurium virulence factor STM3169 is a hexuronic acid binding protein component of a TRAP transporter” (Microbiology, 2020).

Target: STM3169 (Salmonella enterica, UniProt Q8ZM02)
Experiment: intrinsic fluorescence titration; supported by MST (KD […]) and thermal shift
Type: binding

Sequence of STM3169 (Q8ZM02 entry or part of it): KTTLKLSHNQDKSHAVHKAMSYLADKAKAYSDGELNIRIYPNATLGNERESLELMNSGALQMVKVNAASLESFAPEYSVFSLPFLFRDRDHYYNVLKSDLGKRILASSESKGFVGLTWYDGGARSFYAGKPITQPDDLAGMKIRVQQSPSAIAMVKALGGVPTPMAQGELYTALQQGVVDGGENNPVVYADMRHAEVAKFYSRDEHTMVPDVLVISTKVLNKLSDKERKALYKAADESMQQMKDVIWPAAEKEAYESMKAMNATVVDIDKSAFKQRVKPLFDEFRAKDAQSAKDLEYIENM

O=C(O)[C@H]1OC(O)[C@H](O)[C@@H](O)[C@@H]1O (stereo partly drawn) [D-glucuronate]
Kd: 170 ± 77 nM
